Measurements from patent US20180171411A1, “GFRalpha1 AS A BIOMARKER FOR CISPLATIN-INDUCED CHEMORESISTANCE AND METASTASIS” (THE BOARD OF REGENTS OF THE UNIVERSITY OF TEXAS SYSTEM, priority 2015, published 2018).

Test system: LC3 puncta in MG-63 cells
Test: LC3 puncta formation (mRFP-GFP-LC3 reporter)
Assay type: cell-based, human
Conditions: for LC3 puncta formation: cisplatin 20 μM, 24 hr
Experimental: FIG. 3. GFRα1-induced autophagy enhances the chemoresistance of osteosarcoma cells induced by cisplatin. (a) Control and GFRα1-deficient MG-63 cells were transiently transfected with a mRFP-GFP tandem fluorescent-tagged LC3 (mRFP-GFP-LC3) vector and then treated with cisplatin (20μM) for 24 hr. Left, representative images of RFP-LC3 and GFP-LC3 puncta. Scale bar, 20 μm. Right, quantitative analysis of the number of yellow puncta and the number of RFP-LC3 puncta in the combined images. The values are represented as a mean±s.d.m. (n=3). ** denotes p<0.05 by t-test. (b) Control and GFRα1-deficient MG-63 cells were treated with cisplatin (20 μM) for 24 hr and then stained with acridine orange. Top, representative images of cells stained with acridine orange. Scale bar, 20 μm. Bottom, quantitative analysis of the number of AVOs. The values are represented as a mean±s.d.m. (n=3). ** denotes p<0.05 by t-test. (c) Control and GFRα1-deficient MG-63 cells were treated with cisplatin (20 μM) for 24 hr and then analyzed by TEM. Top, representative images of autophagic vacuoles (yellow arrows) detected after cisplatin treatment in control MG-63 cells. Scale bar, 100 nm. Bottom, quantitative analysis of the number of autophagic vacuoles. The values are represented as a mean±s.d.m. (n=3). ** denotes p<0.05 by t-test. (d) Immunoblot analysis of control and GFRα1-overexpressing osteosarcoma cell lysates with antibodies specific for GFRα1, LC3 and β-actin. GFRα1-overexpressing MG-63 cells were treated with DMSO, 3-MA (10 μM) or Baf (100 nM). (e) Quantitative analysis of the number of yellow puncta and the number of RFP-LC3 puncta in control and GFRα1-overexpressing MG-63 cells. Control and GFRα1-overexpressing MG-63 cells were transiently transfected with an RFP-GFP tandem fluorescent-tagged LC3 (mRFP-GFP-LC3) and then treated with cisplatin (20 μM) for 24 hr. […] (g) Control and GFRα1-overexpressing MG-63 cells were treated with cisplatin (20 μM) for 24 hr and then stained with acridine orange. Top, representative images of cells stained with acridine orange. Scale bar, 20 μm. Bottom, quantitative analysis of the number of AVOs. The values are represented as a mean±s.d.m. (n=3). ** denotes p<0.05 by t-test. (h) Control and GFRα1-overexpressing MG-63 cells were treated with cisplatin (20 μM) for 24 hr and then analyzed by TEM. Top, representative images of autophagic vacuoles detected after cisplatin treatment in control and GFRα1-overexpressing MG-63 cells. Scale bar, 100 nm. Bottom, quantitative analysis of the number of autophagic vacuoles. The values are represented as a mean±s.d.m. (n=3). ** denotes p<0.05 by t-test. (i) Cell viability of GFRα1-overexpressing osteosarcoma cells after cisplatin treatment in the presence of autophagy inhibitors. Control or GFRα1-overexpressing MG-63 cells were cultured with DMSO, 3-MA or Baf, and then treated with cisplatin (20 μM) for 24 hr. Cell viability was measured using the WST-1 assay. The values are represented as a mean±s.d.m. (n=3). ** denotes p<0.05 by t-test. (j) Cell viability of GFRα1-overexpressing osteosarcoma cells after cisplatin treatment in the presence of Beclin 1 (20 nM) or HMGB1 (20 nM) […] siRNA. Control or GFRα1-overexpressing MG-63 cells were cultured with Beclin 1 or HMGB1 siRNA for 48 hr and then treated with cisplatin (20 μM) for 24 hr. Cell viability was measured using the WST-1 assay. The values are represented as a mean±s.d.m. (n=3). ** denotes p<0.05 by t-test. (k) The effect of GFRα1 deficiency or overexpression on colony formation in the presence of cisplatin (20 μM). Equal number (1×10^4 cells) of control (control shRNA), GFRα1-deficient (GFRα1 shRNA), control (empty vector), and GFRα1-overexpressing (GFRα1 expressing vector) MG-63 cells were plated. All of cell lines were incubated with cisplatin (20 μM) for 10 days. Colonies were stained by crystal violet for visualization. Left, representative images of colony formation. Right, quantitative analysis of the number of colonies and plating efficiency. […]

Cn1cnc(N)c2ncnc1-2 [3-MA, 3-methyladenine]
cisplatin-induced puncta formation (MG-63 cells pretreated with 3-MA (10 mM) 2 hr, cisplatin 20 μM 24 hr): blocked | puncta formation (control and GFRα1-overexpressing cells, 3-MA pretreatment 2 hr): blocked

N.N.[Cl][Pt][Cl] [cisplatin, Cis-Diamineplatinum(II) dichloride]
LC3 puncta formation (GFRα1-deficient MG-63 cells): no change | LC3 puncta formation (MG-63 cells transfected with control shRNA): significantly increased

B1: GDNF: glial cell line-derived neurotrophic factor, the major ligand of GFRα1 (protein, UniProt P39905 78-211, looked up)
Glial cell line-derived …: SPDKQMAVLPRRERNRQAAAANPENSRGKGRRGQRGKNRGCVLTAIHLNVTDLGLGYETKEELIFRYCSGSCDAAETTYDKILKNLSRNRRLVSDKVGQACCRPIAFDDDLSFLDDNLVYHILRKHSAKRCGCI
GFRα1-mediated autophagy after cisplatin treatment (control and GFRα1-overexpressing MG-63 cells, GDNF): did not have an effect | LC3 puncta formation on addition of GDNF (control or GFRα1-overexpressing cells, GDNF 24 h): no significant effect
